Patent US4496591A, “Insecticidal bis-carbamate sulfides” (priority 1981, dated 1985)

Legend:
Assay type in all cases: in vivo
Snapbean = experiment: Phytotoxicity, snapbean; parameters: key: 0: the compounds had no visible effects on that plant species; settings: scale 0 to 10, eight pounds per acre, approximately two weeks
Protocol: (§1) Several species of the novel compounds were tested for their phytotoxic effects. Two flats of each species of plants to be tested were planted 8-14 days before testing and grown at greenhouse conditions. One flat was sprayed with the chemical to be tested at the rate of eight pounds per acre while the other control flat was sprayed with solvent only. The results of such testing were recorded approximately two weeks after treatment and are reproduced in Table III below.
(§2) Numerical ratings from "0" to "10" are used to designate the degree of activity.

Sorghum = experiment: Phytotoxicity, sorghum; parameters: key: 0: the compounds had no visible effects on that plant species; settings: scale 0 to 10, eight pounds per acre, approximately two weeks
Protocol: as §1, §2

Cucumber = experiment: Phytotoxicity, cucumber; parameters: key: 0: the compounds had no visible effects on that plant species; settings: scale 0 to 10, eight pounds per acre, approximately two weeks
Protocol: as §1, §2

Marigold = experiment: Phytotoxicity, marigold; parameters: key: 0: the compounds had no visible effects on that plant species; settings: scale 0 to 10, eight pounds per acre, approximately two weeks
Protocol: as §1, §2

flax = experiment: Phytotoxicity, flax; parameters: key: 0: the compounds had no visible effects on that plant species; settings: scale 0 to 10, eight pounds per acre, approximately two weeks
Protocol: as §1, §2

[1] = system: bean aphid (Aphis fabae Scop.); experiment: Bean aphid foliage spray test; parameters: key: A: excellent control; B: partial control; C: no control at 500 ppm; settings: 500 parts per million, 24 hour
Protocol: (§3) Suspensions of the test compounds were prepared by dissolving one gram of compound in 50 milliliters of acetone in which had been dissolved 0.1 gram (10 percent of the weight of compound) of an alkylphenoxy polyethoxyethanol surfactant, as an emulsifying or dispersing agent. The resulting solution was mixed into 150 milliliters of water to give roughly 200 milliliters of a suspension containing the compound in finely divided form. The thus-prepared stock suspension contained 0.5 percent by weight of compound. The concentrations in parts per million by weight employed in the tests described hereinbelow were obtained by appropriate dilutions of the stock suspension with water. The test procedures were as follows:
Adults and nymphal stages of the bean aphid (Aphis fabae Scop.) reared on potted dwarf nasturtium plants at 68°-70° F. and 50±5 percent relative humidity, constituted the test insects. For testing purposes, the number of aphids per pot were standardized to 100-150 by trimming plants containing excess aphids.
The test compounds were formulated by diluting the stock suspension with water to give a suspension containing 500 parts of test compound per million parts of final formulation.
The potted plants (one pot per compound tested) infested with 100-150 aphids, were placed on a revolving turntable and sprayed with 100-110 milliliters of test compound formulation by use of a DeVilbiss spray gun set at 40 psig. air pressure. This application, which lasted 25 seconds, was sufficient to wet the plants to run-off. As a control, 100-110 milliliters of a water-acetone-emulsifier solution containing no test compound was also sprayed on infested plants. After spraying, the pots were placed on their sides on a sheet of white standard mimeograph paper which had been previously ruled to facilitate counting. Temperature and humidity in the test room during the 24 hour holding period were 68°-70° F. and 50±5 percent, respectively. Aphids which fell onto the paper and were unable to remain standing after being uprighted were considered dead. Aphids remaining on the plants were observed closely for movement and those which were unable to move the length of the body upon stimulation by prodding were considered dead.
(§4) In these tests the pesticidal activity of the compounds at the indicated dosage rate against aphid, Southern Armyworm, Bean Beetle and housefly was rated as follows: […]

[2] = system: southern armyworm (Spodoptera eridania, (Cram.)) larvae; experiment: Southern armyworm leaf spray bait test; parameters: key: A: excellent control; B: partial control; C: no control at 500 ppm; settings: 500 parts per million, three days
Protocol: as §3
Larvae of the southern armyworm (Spodoptera eridania, (Cram.)), reared on Tendergreen bean plants at a temperature of 80±5° F. and a reative humidity of 50±5 percent, constituted the test insects.
The test compounds were formulated by diluting the stock suspension with water to give a suspension containing 500 parts of test compound per million parts of final formulation. Potted Tendergreen bean plants of standard height and age were placed on a revolving turntable and sprayed with 100-110 milliliters of test compound formulation by use of a DeVilbiss spray gun set at 40 psig air pressure. This application, which lasted 25 seconds, was sufficient to wet the plants to run-off. As a control, 100-110 milliliters of a water-acetone-emulsifier solution containing no test compound were also sprayed on infested plants. When dry, the paired leaves were separated and each one was placed in a 9 centimeter Petri dish lines with moistened filter paper. Five randomly selected larvae were introduced into each dish and the dishes were closed. The closed dishes were labeled and held at 80°-85° F. for three days. Although the larvae could easily consume the whole leaf within twenty-four hours, no more food was added. Larvae which were unable to move the length of the body, even upon stimulation by prodding, were considered dead.
as §4

[3] = system: egg of the Southern armyworm (Spodoptera eridania (Cram.)); experiment: Southern armyworm ovicide test; parameters: key: A: excellent control; B: partial control; C: no control at 500 ppm; settings: 500 parts per million, egg dip, four days
Protocol: as §3
The test organism was the egg of the Southern armyworm (Spodoptera eridania (Cram.)) as obtained from adults reared on Tendergreen bean plants at a temperature of 80±5° F. and a relative humidity of 50±5 percent. The eggs were laid on freezer paper (Marlon 717, Copco paper) and then cut into small sections containing one or two egg masses.
The test compounds were formulated by diluting the stock suspension with water to give a suspension containing 500 parts of test compound per million parts of final formulation. The egg masses were then dipped until they were thoroughly wet (5-10 seconds). They were then placed on a paper towel face up and were allowed to dry for 15-30 minutes. The dry eggs were placed in a 15×60 mm petri dish containing a cotton dental wick saturated with a 5 percent sodium chloride solution to maintain a high level of humidity. The closed dishes were labeled and held at a temperature of 80±5° F. for four days. Larvae that emerged from the egg, even if dead at the time of observation, were recorded as hatched.
as §4

[4] = system: Mexican bean beetle (Epilachna varivestis, Muls.) larvae; experiment: Mexican bean beetle leaf spray test; parameters: key: A: excellent control; B: partial control; C: no control at 500 ppm; settings: 500 parts per million, fourth instar larvae, three days
Protocol: as §3
Fourth instar larvae of the Mexican bean beetle (Epilachna varivestis, Muls.), reared on Tendergreen bean plants at a temperature of 80±5° F. and 50±5° F. percent relative humdity, were the test insects.
The test compounds were formulated by diluting the stock suspension with water to give a suspension containing 500 parts of test compound per million parts of final formulation. Tendergreen bean plants of standard height and age were placed on a revolving turntable and sprayed with 100-110 milliliters of test compound formulation by use of a DeVilbiss spray gun set at 40 psig air pressure. This application, which lasted 25 seconds, was sufficient to wet the plants to run-off. As a control, 100-110 milliliters of a water-acetone-emulsifier solution containing no test compound was also sprayed on infested plants. When dry, the paired leaves were separated and each was placed in a 9 centimeter Petri dish lined with moistened filter paper. Five randomly selected larvae were introduced into each dish, and the dishes were closed. The closed dishes were labeled and held at a temperature of 80±5° F., for three days. Although the larvae could easily consume the leaf within 24 to 48 hours, no more food was added. Larvae which were unable to move the length of the body, even upon stimulation, were considered dead.
as §4

[5] = system: house flies (Musca domestica, L.); experiment: Fly bait test; parameters: key: A: excellent control; B: partial control; C: no control at 500 ppm; settings: 500 parts per million, sugar bait, twenty-four hours
Protocol: as §3
Four to six day old adult house flies (Musca domestica, L.), reared according to the specifications of the Chemical Specialties Manufacturing Association (Blue Book, McNair-Dorland Co., N.Y. 1954; pages 243-244, 261) under controlled conditions of 80±5° F. and 50±5 percent relative humidity, were the test insects. The flies were immobilized by anesthetizing them with carbon dioxide. Twenty-five immobilized individuals, males and females, were transferred to a cage consisting of a standard food strainer about five inches in diameter which was inverted over a wrapping-paper-covered surface. The test compounds were formulated by diluting the stock suspension with a 10 percent (by weight) sugar solution to give a suspension containing 500 parts of test compound per million parts of final formulation, by weight. Ten milliliters of the test formulation were added to a souffle cup containing a one-inch square of an absorbent cotton pad. This bait cup was introduced and centered on the blotting paper under the food strainer prior to admitting the anesthetized flies. The caged flies were allowed to feed on the bait for twenty-four hours, at a temperature of 80±5° F. and at a relative humidity of 50±5 percent.
as §4

[6] = system: root-knot nematode, Meloidogyne incognita var. acrita; experiment: Nematocide test; parameters: key: 1: severe galling, equal to untreated plants; 2: moderate galling; 3: light galling; 4: very light galling; 5: no galling, perfect control; settings: 3.33 m.g. per jar, cucumber, approximately 3 weeks
Protocol: The test organism used was the infective migratory larvae of the root-knot nematode, Meloidogyne incognita var. acrita, reared in the greenhouse on roots of cucumber plants. Infected plants were removed from the culture, and the roots were chopped very finely. A small amount of this inoculum was added to a pint jar containing approximately 180 cc. of soil. The jars were capped and incubated for one week at room temperature. During this period eggs of the nematode were hatched, and the larval forms migrated into the soil.
Ten ml. of the test formulation were added to each of the two jars for each dosage tested. Following the addition of chemical, the jars were capped, and the contents thoroughly mixed on a ball mill for […].
The test compounds were formulated by a standard procedure of solution in acetone addition of an emulsifier, and dilution with water. Primary screening tests were conducted at 3.33 m.g. of the test compound per jar.
The jars were left capped at room temperature for a period of 48 hours, and the contents then transferred to 3 inch pots. Subsequently, the pots were seeded to cucumber as an indicator crop and placed in the greenhouse where they were cared for in the normal fashion for approximately 3 weeks.
The cucumber plants were then taken from the pots, the soil removed from the roots, and the amount of galling visually rated.
In the test for activity against nematodes activity was rated as follows: […]

| Structure (SMILES) | Phytotoxicity rating, Snapbean (Snapbean) | Phytotoxicity rating, Sorghum (Sorghum) | Phytotoxicity rating, Cucumber (Cucumber) | Phytotoxicity rating, Marigold (Marigold) | Phytotoxicity rating, flax (flax) | Aphids, pesticidal activity rating [1] | Southern Armyworm, pesticidal activity rating [2] | Southern Armyworm (egg), pesticidal activity rating [3] | Mexican Bean Beetle, pesticidal activity rating [4] | Housefly, pesticidal activity rating [5] | Root-Knot Nematode, galling rating [6] |
| --- | --- | --- | --- | --- | --- | --- | --- | --- | --- | --- | --- |
| CSC(C)=NOC(=O)N(C)SN(C)C(=O)Oc1ccccc1C(C)=O | 0 | 0 | 0 | 0 | 0 | – | – | – | – | – | – |
| CSC(C)=NOC(=O)N(C)SN(C)C(=O)Oc1ccc(C(=O)c2ccccc2)cc1 [Compound 6] | – | – | – | – | – | A | A | A | A | A | 4 |
| CSC(C)=NOC(=O)N(C)SN(C)C(=O)Oc1ccc(C(C)=O)c(C)c1 [Compound 7] | – | – | – | – | – | A | A | A | A | A | 5 |
| CSC(C)=NOC(=O)N(C)SN(C)C(=O)Oc1ccccc1C=O [Compound 8] | – | – | – | – | – | A | A | B | A | A | 4 |
| CSC(C)=NOC(=O)N(C)SN(C)C(=O)Oc1cc(C)c(C)cc1C(C)=O [Compound 9] | – | – | – | – | – | A | A | A | A | A | 1 |
| COc1ccc(C(=O)c2ccccc2)c(OC(=O)N(C)SN(C)C(=O)ON=C(C)SC)c1 [Compound 10] | – | – | – | – | – | A | A | A | A | A | 5 |
| CSC(C)=NOC(=O)N(C)SN(C)C(=O)Oc1ccccc1C=O [drawing 25] | 0 | 0 | 0 | 0 | 0 | – | – | – | – | – | – |
| CSC(C)=NOC(=O)N(C)SN(C)C(=O)Oc1cccc(C(C)=O)c1 [drawing 26] | 0 | 0 | 0 | 0 | 0 | – | – | – | – | – | – |
